Experimental data published in publication PMC11879280, “Antimicrobial activity of peptoids against Metallo-β-lactamase-producing Klebsiella pneumoniae, Acinetobacter baumannii, Pseudomonas aeruginosa, and other WHO priority pathogens, including Candida auris” (Journal of Applied Microbiology, 2025).
≈ marks a conversion by molar mass, not a printed value.

Columns and labels:
S. aureus 105 = conditions: S. aureus 105; CAMHB, 37°C, 16–20 h
Procedure: (§1) Briefly, bacteria were suspended in cation-adjusted Mueller–Hinton broth (CAMHB; Oxoid, UK) for antibiotics, or MHB (Oxoid, UK) for peptidomimetics to obtain 5 × 10^5 colony forming unit (CFU) ml^−1. […] Positive controls contained only microbes, and blanks contained only media. Microbial suspensions (100 µl) were added to wells, plates wrapped, and incubated at 37°C, 120 rpm for 16–20 h. After incubation, suspensions were removed, log10 diluted, and plated on Trypticase Soya Agar with phosphatidylcholine and Tween 80 to determine minimum bactericidal or fungicidal concentration (MBC or MFC). […] Geometric mean MIC of the peptoids were calculated to evaluate the broad overview of antimicrobial activity across the pathogens.

S. aureus 04 = conditions: S. aureus 04; CAMHB, 37°C, 16–20 h
Procedure: as §1

S. aureus 117 = conditions: S. aureus 117; CAMHB, 37°C, 16–20 h
Procedure: as §1

S. aureus 38 = conditions: S. aureus 38; CAMHB, 37°C, 16–20 h
Procedure: as §1

C. auris CBS12373 = assay: Broth microdilution MIC; format: cell-based, Candida auris; conditions: CBS 12 373; for MIC against C. auris: RPMI 1640 with MOPS, 5 × 10^3 CFU ml^−1, ≥90% reduction (≥50% for fluconazole)
C. auris CBS 10913 [1] = assay: Sorbitol protection assay; format: cell-based, Candida auris; conditions: C. auris CBS 10913; sorbitol 0.8 mol l^−1 in RPMI, till 7 days
From the text: Caspofungin served as a positive control for the assay (Leite et al. [2014]).

[2] = tested on: Enteroc. faecalis NCTC 13 379; conditions: Enteroc. faecalis NCTC 13 379; CAMHB, 37°C, 16–20 h
Procedure: as §1

C. auris CBS10913 [3] = conditions: CBS 10 913; RPMI 1640 with MOPS, 5 × 10^3 CFU ml^−1; ≥90% reduction (≥50% for fluconazole)
C. auris CBS10913 [4] = assay: microbe, parasite or virus in culture; conditions: Candidozyma auris, read-out: MIC against C. auris
C. auris CBS 10913 [5] = assay: microbe, parasite or virus in culture; format: cell-based, Candida auris; conditions: C. auris CBS 10913
Procedure: Amphotericin B was tested in parallel as a positive control (Ramesh et al. [2023]).

C. auris CBS10913 [6] = assay: Membrane integrity by flow cytometry (SYTO 9 / PI); format: cell-based, Candida auris; conditions: TM8 at its MIC or 1% Triton X-100, 90 min; PBS control 0.2%
Procedure: Afterwards, the cells were stained with SYTO 9 (7.5 µmol l^−1) and PI (30 µmol l^−1) for an additional 15 min in the dark at room temperature. Following washing, samples were then analysed for membrane integrity on a BD FACSymphony^TM A3, with a minimum of 10 000 events recorded per sample.

E. coli 0010 = conditions: E. coli 0010; CAMHB, 37°C, 16–20 h
Procedure: as §1

K. pneumoniae JIE2709 = conditions: K. pneumoniae JIE2709; CAMHB, 37°C, 16–20 h
Procedure: as §1

E. coli 0015 = conditions: E. coli 0015; CAMHB, 37°C, 16–20 h
Procedure: as §1

E. coli 0011 = conditions: E. coli 0011; CAMHB, 37°C, 16–20 h
Procedure: as §1

K. pneumoniae JIE2713 = conditions: K. pneumoniae JIE2713; CAMHB, 37°C, 16–20 h
Procedure: as §1

En. cloacae 001 = conditions: En. cloacae 001; CAMHB, 37°C, 16–20 h
Procedure: as §1

En. cloacae 003 = conditions: En. cloacae 003; CAMHB, 37°C, 16–20 h
Procedure: as §1

K. pneumoniae JIE4212 = conditions: K. pneumoniae JIE4212; CAMHB, 37°C, 16–20 h
Procedure: as §1

E. coli 005 = conditions: E. coli 005; CAMHB, 37°C, 16–20 h
Procedure: as §1

En. cloacae 005 = conditions: En. cloacae 005; CAMHB, 37°C, 16–20 h
Procedure: as §1

Molecule	MIC of antibiotics (S. aureus 105)	MIC of antibiotics (S. aureus 04)	MIC of antibiotics (S. aureus 117)	MIC of antibiotics (S. aureus 38)	MIC of antibiotics [2]	also measured
CO/N=C(\C(=O)N[C@@H]1C(=O)N2C(C(=O)O)=C(COC(C)=O)CS[C@H]12)c1csc(N)n1 [Cefox, cefotaxime, reference compound]	16 µg/mL	0.5 µg/mL	0.5 µg/mL	0.5 µg/mL	–	–
CC[C@H](C)C[C@H](C)CCCCCCCCC(=O)N[C@H]1C[C@@H](O)[C@@H](NCCN)NC(=O)[C@@H]2[C@@H](O)CCN2C(=O)[C@H]([C@H](O)CCN)NC(=O)[C@H]([C@H](O)[C@@H](O)c2ccc(O)cc2)NC(=O)[C@@H]2C[C@@H](O)CN2C(=O)[C@H]([C@@H](C)O)NC1=O [Caspofungin, reference compound]	–	–	–	–	–	MIC against C. auris (C. auris CBS12373): 0.25 (228.7) µg ml^−1; MIC in the presence of sorbitol (C. auris CBS 10913 [1]): 1 µg/mL
CN[C@H](CC(C)C)C(=O)N[C@H]1C(=O)N[C@@H](CC(N)=O)C(=O)N[C@H]2C(=O)N[C@H]3C(=O)N[C@H](C(=O)N[C@H](C(=O)O)c4cc(O)cc(O)c4-c4cc3ccc4O)[C@H](O)c3ccc(c(Cl)c3)Oc3cc2cc(c3O[C@@H]2O[C@H](CO)[C@@H](O)[C@H](O)[C@H]2O[C@H]2C[C@](C)(N)[C@H](O)[C@H](C)O2)Oc2ccc(cc2Cl)[C@H]1O [Van, vancomycin, reference compound]	1 µg/mL	1 µg/mL	4 µg/mL	1 µg/mL	32 µg/mL	–
CC[C@H]1OC(=O)[C@H](C)[C@@H](O[C@H]2C[C@@](C)(OC)[C@@H](O)[C@H](C)O2)[C@H](C)[C@@H](O[C@@H]2O[C@H](C)C[C@H](N(C)C)[C@H]2O)[C@](C)(O)C[C@@H](C)C(=O)[C@H](C)[C@@H](O)[C@]1(C)O [Ery, erythromycin, reference compound]	32 µg/mL	0.5 µg/mL	1 µg/mL	1 µg/mL	4 µg/mL	–
C[C@@H]1[C@H](O)[C@@H](C)/C=C/C=C/C=C/C=C/C=C/C=C/C=C/[C@H](O[C@@H]2O[C@H](C)[C@@H](O)[C@H](N)[C@@H]2O)C[C@@H]2O[C@](O)(C[C@@H](O)C[C@@H](O)[C@H](O)CC[C@@H](O)C[C@@H](O)CC(=O)O[C@H]1C)C[C@H](O)[C@H]2C(=O)O [Amphotericin B, reference compound]	–	–	–	–	–	MIC against C. auris (C. auris CBS10913 [3]): 0.25 µg/mL (≈ 0.271 µM); MIC against C. auris (C. auris CBS12373): 0.25 µg/mL (≈ 0.271 µM); MIC (C. auris CBS12373; Candidozyma auris, value in brackets, read-out: MIC against C. auris): 0.27 µM (≈ 0.25 µg/mL); MIC (C. auris CBS10913 [4]): 0.27 µM (≈ 0.25 µg/mL); Increase in MIC with ergosterol (C. auris CBS 10913 [5]; ergosterol 200 µg ml^−1): five-fold; MIC (C. auris CBS 10913 [5]; Candidozyma auris, CBS10913, RPMI, read-out: MIC in the absence of ergosterol): 0.25 µg/mL (≈ 0.271 µM)
CN(C)c1ccc(O)c2c1C[C@H]1C[C@H]3[C@H](N(C)C)C(O)=C(C(N)=O)C(=O)[C@@]3(O)C(O)=C1C2=O [Min, minocycline, reference compound]	16 µg/mL	0.25 µg/mL	0.5 µg/mL	0.5 µg/mL	0.5 µg/mL	–
Triton X-100 [reference compound]	–	–	–	–	–	Dead cells (C. auris CBS10913 [6]): 27.3%
O=C(N[C@H](CO)[C@H](O)c1ccc([N+](=O)[O-])cc1)C(Cl)Cl [Chl, chloramphenicol, reference compound]	32 µg/mL	2 µg/mL	4 µg/mL	4 µg/mL	64 µg/mL	MIC of antibiotics (E. coli 0010): 8 µg/mL; MIC of antibiotics (K. pneumoniae JIE2709): >32 µg/mL; MIC of antibiotics (E. coli 0015): 2 µg/mL; MIC of antibiotics (E. coli 0011): 1 µg/mL; MIC of antibiotics (K. pneumoniae JIE2713): 32 µg/mL; MIC of antibiotics (En. cloacae 001): 32 µg/mL; MIC of antibiotics (En. cloacae 003): 32 µg/mL; MIC of antibiotics (K. pneumoniae JIE4212): 32 µg/mL; MIC of antibiotics (E. coli 005): 8 µg/mL; MIC of antibiotics (En. cloacae 005): 32 µg/mL
penicillin [reference compound]	32 µg/mL	16 µg/mL	16 µg/mL	16 µg/mL	4 µg/mL	–
